Source: patent US20180028543A1, “HYPOLIPIDEMIC COMPOSITION AND USE THEREOF” (priority 2014, published 2018)

Legend:
hyperlipidemia rats [1] = assay: Hypolipidemic animal experiment: blood lipid levels in high-fat feed rats; type: in vivo, SD rats; conditions: serum, positive drug 1.5 mg/kg intragastric, 4 weeks, X ± S, n = 10
Method: 3. […] From the day of experiment, the blank control group and the model control group were intragastrically administered with normal saline (volume: 10 ml/kg), the administration group was intragastrically administered with corresponding drugs once a day, the body weight was weighed once a week, and the dosage was adjusted according to the body weight. The blank control group was fed with the normal feed, the other groups was fed with high-fat feed. During the experiment, free feeding, free drinking, continuous molding and drug administration for prevention were carried out for 4 weeks.
(§1) 4. Observation indexes: after the last administration, the rats fasted for 12 h without fasting water. The rats were anesthetized with 3% pentobarbital sodium, blood was collected from the abdominal aorta, serum was centrifugally separated, and the serum total cholesterol (TC), triglyceride (TG), high-density lipoprotein cholesterol (HDL-C), low-density lipoprotein cholesterol (LDL-C), alanine aminotransferase (ALT) and aspartate aminotransferase (AST) values were measured.

hyperlipidemia rats [2] = assay: Effect on liver function (serum ALT, AST) of high-fat feed rats; type: in vivo, SD rats; conditions: positive drug 1.5 mg/Kg-d, 4 weeks, X ± S, n = 10
Description: 1. Experimental materials: 150 healthy SD male and female rats in clean grade, with body weight of (150.2±8.9) g.
2. Feed: general feed, high-fat feed formula: 72.7% of basic feed, 2% of cholesterol, 5% of egg yolk powder, 10% of lard, 0.2% of propylthiouracil, 10% of sucrose and 0.1% of sodium cholate.
3. Grouping and administration of animals: the purchased experimental rats were adaptively fed for 1 week in a lab, original numbers were assigned according to the weighing order, and the rats were randomly divided into a blank control group, a model control group, a pharmaceutical composition (respectively prepared as in Examples 3, 6, 8 and 10, and added with 50 ml of water per 10 g to be dissolved to obtain a solution) low-dose group (5 ml/kg·d), a middle-dose group (10 ml/kg-d), a high-dose group (15 ml/kg·d), a positive drug (simvastatin) control group (1.5 mg/kg, volume: 10 ml/kg) by looking up a random number table, and there were 10 rats in each group. […]
as §1, with “Observation indexes: after the last administration, the rats fasted for 12 h without fasting water.” left out, “measured. […]” for “measured.”

SMILES: CCC(C)(C)C(=O)O[C@H]1C[C@@H](C)C=C2C=C[C@H](C)[C@H](CC[C@@H]3C[C@@H](O)CC(=O)O3)[C@H]21 [Positive drug, simvastatin]
- HDL-C (hyperlipidemia rats [1]): 1.23 ± 0.17 mmol/L
- LDL-C (hyperlipidemia rats [1]): 1.68 ± 1.91 mmol/L
- TC (hyperlipidemia rats [1]): 8.42 ± 4.79 mmol/L
- TG (hyperlipidemia rats [1]): 0.49 ± 0.18 mmol/L
- ALT (hyperlipidemia rats [2]): 45.85 ± 5.21 U/L
- AST (hyperlipidemia rats [2]): 22.32 ± 7.56 U/L
